According to DBAASP:
Values after ≈ are worked out from the molar mass of the structure shown.

Columns and labels:
Experiment in all cases: ≥ marks a high value that may be exact or a test limit, other limits are often not marked, values filed in µg/mL are converted to µM
[1] = tested on: Staphylococcus aureus USA 300
[2] = tested on: Escherichia coli K-12
[3] = tested on: Bacillus subtilis 168
[4] = tested on: Pseudomonas aeruginosa PAO1
[5] = tested on: Bacillus cereus
[6] = tested on: Staphylococcus epidermidis
[7] = tested on: Micrococcus luteus
[8] = tested on: Staphylococcus aureus
[9] = tested on: Streptococcus uberis
[10] = tested on: Escherichia coli
[11] = tested on: Listeria innocua
[12] = tested on: Leuconostoc lactis
[13] = tested on: Pasteurella multocida
[14] = tested on: Enterobacter cloacae
[15] = tested on: Pseudomonas aeruginosa
[16] = tested on: Staphylococcus aureus ATCC 29213
[17] = tested on: Staphylococcus aureus ATCC 25923
[18] = tested on: Enterococcus faecalis
[19] = tested on: Acinetobacter baumannii
[20] = tested on: Candida albicans ATCC 90028
[21] = tested on: Pseudomonas aeruginosa ATCC 27853
[22] = tested on: Acinetobacter baumannii ATCC 19606
[23] = tested on: Staphylococcus aureus MR
[24] = tested on: Escherichia coli ATCC 25922
[25] = tested on: Escherichia coli UB1005
[26] = tested on: Bacillus subtilis CMCC 63501
[27] = tested on: Salmonella enterica subsp. enterica serovar Typhimurium ATCC 14028
[28] = tested on: Salmonella enterica subsp. enterica serovar Pullorum C79-13
[29] = tested on: Enterococcus faecalis ATCC 29212
[30] = tested on: Staphylococcus epidermidis ATCC 12228

MIC [5] | MIC [6] | MIC [7] | MIC [8] | MIC [9] | MIC [10] | MIC [11] | MIC [12] | MIC [13] | MIC [16] | MIC [23] | Compound | also measured
 |  |  |  |  |  |  |  |  |  |  | CC[C@H](C)[C@H](NC(=O)[C@@H](NC(=O)[C@H](CCCCN)NC(=O)CNC(=O)[C@@H](NC(=O)[C@@H](NC(=O)[C@H](CO)NC(=O)[C@@H](NC(=O)[C@@H](NC(=O)[C@@H]1CCCN1C(=O)[C@@H](NC(=O)[C@@H](NC(=O)CN)[C@@H](C)CC)[C@@H](C)CC)[C@@H](C)CC)[C@@H](C)CC)[C@@H](C)CC)[C@@H](C)CC)[C@@H](C)CC)C(N)=O [GIIPIISIIGKII] | MIC [1]: ≥ 34 µM; MIC [2]: ≥ 34 µM; MIC [3]: 30 µM (≈ 40.5 µg/mL); MIC [4]: > 30 µM
≥ 32.5 µM | ≥ 64.9 µM | ≥ 32.5 µM | 64.9 µM (≈ 99.9 µg/mL) | ≥ 64.9 µM | > 64.9 µM | ≥ 64.9 µM | ≥ 64.9 µM | ≥ 64.9 µM |  |  | CC[C@H](C)[C@H](NC(=O)[C@@H](NC(=O)[C@H](CO)NC(=O)[C@H](C)NC(=O)[C@@H](NC(=O)[C@H](CCCCN)NC(=O)[C@H](CCCCN)NC(=O)[C@@H](NC(=O)[C@@H](NC(=O)[C@H](CC(=O)O)NC(=O)[C@H](C)NC(=O)[C@H](CC(C)C)NC(=O)CN)C(C)C)[C@@H](C)CC)C(C)C)C(C)C)C(=O)NCC(=O)NCC(=O)N[C@@H](CC(C)C)C(N)=O [GLADVIKKVASVIGGL] | 
14.2 µM (≈ 25 µg/mL) | 6.84 µM (≈ 12 µg/mL) | 14.2 µM (≈ 25 µg/mL) | 14.2 µM (≈ 25 µg/mL) | 28.5 µM (≈ 50 µg/mL) | > 57 µM | ≥ 57 µM | 1.71 µM (≈ 3 µg/mL) | ≥ 57 µM |  |  | CC[C@H](C)[C@H](NC(=O)[C@@H](NC(=O)[C@H](C)NC(=O)[C@H](Cc1ccccc1)NC(=O)[C@H](CC(C)C)NC(=O)CN)C(C)C)C(=O)N[C@@H](CCCCN)C(=O)N[C@@H](CCCCN)C(=O)N[C@H](C(=O)N[C@@H](C)C(=O)N[C@@H](CCCCN)C(=O)N[C@H](C(=O)N[C@H](C(=O)N[C@@H](CCCCN)C(=O)N[C@@H](CCCCN)C(=O)N[C@@H](CC(C)C)C(N)=O)[C@@H](C)CC)C(C)C)C(C)C [GLFAVIKKVAKVIKKL] | 
≥ 64.1 µM | ≥ 64.1 µM | ≥ 64.1 µM | 64.1 µM (≈ 99.9 µg/mL) | ≥ 64.1 µM | > 64.1 µM | ≥ 64.1 µM | 16 µM (≈ 25 µg/mL) | ≥ 64.1 µM |  |  | CC[C@H](C)[C@H](NC(=O)[C@@H](NC(=O)[C@H](CO)NC(=O)[C@H](C)NC(=O)[C@@H](NC(=O)[C@H](CCCCN)NC(=O)[C@H](C)NC(=O)[C@@H](NC(=O)[C@@H](NC(=O)[C@H](CC(=O)O)NC(=O)[C@H](Cc1ccccc1)NC(=O)[C@H](CC(C)C)NC(=O)CN)C(C)C)[C@@H](C)CC)C(C)C)C(C)C)C(=O)NCC(=O)NCC(=O)N[C@@H](CC(C)C)C(N)=O [GLFDVIAKVASVIGGL] | 
≥ 58.3 µM | ≥ 58.3 µM | ≥ 58.3 µM | > 58.3 µM | ≥ 58.3 µM | > 58.3 µM | ≥ 58.3 µM | 3.5 µM (≈ 6 µg/mL) | ≥ 58.3 µM |  |  | CC[C@H](C)[C@H](NC(=O)[C@H](CCCCN)NC(=O)[C@H](CO)NC(=O)[C@H](C)NC(=O)[C@@H](NC(=O)[C@H](CCCCN)NC(=O)[C@H](CCCCN)NC(=O)[C@@H](NC(=O)[C@@H](NC(=O)[C@H](CC(=O)O)NC(=O)[C@H](Cc1ccccc1)NC(=O)[C@H](CC(C)C)NC(=O)CN)C(C)C)[C@@H](C)CC)C(C)C)C(=O)N[C@@H](CCCCN)C(=O)NCC(=O)N[C@@H](CC(C)C)C(N)=O [GLFDVIKKVASKIKGL] | 
18.9 µM (≈ 50 µg/mL) | 4.53 µM (≈ 12 µg/mL) | 9.43 µM (≈ 25 µg/mL) |  | 9.43 µM (≈ 25 µg/mL) | > 37.7 µM | 4.53 µM (≈ 12 µg/mL) | 1.13 µM (≈ 3 µg/mL) | 18.9 µM (≈ 50 µg/mL) | 4.53 µM (≈ 12 µg/mL) |  | CC[C@H](C)[C@H](NC(=O)[C@@H](NC(=O)[C@@H]1CCCN1C(=O)[C@H](C)NC(=O)[C@@H](NC(=O)[C@H](Cc1cnc[nH]1)NC(=O)[C@@H]1CCCN1C(=O)[C@H](CC(C)C)NC(=O)[C@H](CC(C)C)NC(=O)[C@H](Cc1cnc[nH]1)NC(=O)[C@H](CCCCN)NC(=O)[C@H](C)NC(=O)[C@@H](NC(=O)[C@H](CO)NC(=O)CNC(=O)[C@H](CC(C)C)NC(=O)[C@@H](NC(=O)[C@H](CCCCN)NC(=O)[C@H](Cc1ccccc1)NC(=O)[C@H](CC(C)C)NC(=O)CN)C(C)C)C(C)C)C(C)C)[C@@H](C)CC)C(=O)N[C@@H](C)C(=O)N[C@@H](CCC(=O)O)C(=O)N[C@@H](CCCCN)C(=O)N[C@@H](CC(C)C)C(N)=O [GLFKVLGSVAKHLLPHVAPIIAEKL] | MIC [14]: ≥ 37.7 µM; MIC [15]: > 37.7 µM; MIC [17]: 4.53 µM (≈ 12 µg/mL); MIC [18]: ≥ 37.7 µM
 |  |  |  |  |  |  |  |  | 2.5 µM (≈ 3.93 µg/mL) | ≥ 204 µM | CC[C@H](C)[C@H](NC(=O)[C@H](CCCN=C(N)N)NC(=O)[C@H](CCCCN)NC(=O)[C@@H](NC(=O)[C@@H](NC(=O)[C@H](CCCN=C(N)N)NC(=O)[C@@H](N)CCCCN)[C@@H](C)CC)C(C)C)C(=O)N[C@@H](CCCCN)C(=O)N[C@@H](CC(=O)O)C(=O)N[C@@H](Cc1ccccc1)C(=O)N[C@@H](CC(C)C)C(=O)N[C@@H](CCCN=C(N)N)C(=O)O [KRIVKRIKDFLR] | MIC [19]: ≥ 50.9 µM; MIC [20]: 2.5 µM (≈ 3.93 µg/mL); MIC [21]: 2.5 µM (≈ 3.93 µg/mL); MIC [22]: ≥ 102 µM; MIC [17]: ≥ 204 µM; MIC [24]: 1.25 µM (≈ 1.96 µg/mL)
 |  |  |  |  |  |  |  |  |  | 24 µM (≈ 64 µg/mL) | CC[C@H](C)[C@H](NC(=O)[C@H](Cc1ccc(O)cc1)NC(=O)[C@H](CCCN=C(N)N)NC(=O)[C@H](CCCCN)NC(=O)[C@H](Cc1ccc(O)cc1)NC(=O)[C@@H](N)CC(C)C)C(=O)N[C@@H](CC(C)C)C(=O)N[C@@H](CCCN=C(N)N)C(=O)N[C@@H](CCCCN)C(=O)N[C@@H](Cc1ccccc1)C(=O)N[C@@H](CCCCN)C(=O)N[C@@H](Cc1ccccc1)C(=O)N[C@@H](CC(C)C)C(=O)N[C@@H](CCCCN)C(=O)N[C@@H](CCCCN)C(=O)N[C@@H](CCCCN)C(=O)N[C@@H](CC(C)C)C(=O)N[C@@H](CCCCN)C(=O)N[C@@H](CCCCN)C(=O)N[C@@H](CCCCN)C(N)=O [LYKRYILRKFKFLKKKLKKK] | 
 |  |  | > 66.3 µM |  |  |  |  |  |  | ≥ 66.3 µM | CC(C)C[C@H](NC(=O)[C@@H](N)CCCN=C(N)N)C(=O)N[C@@H](C)C(=O)N[C@@H](CCCN=C(N)N)C(=O)N[C@@H](CCCN=C(N)N)C(=O)N[C@H](C(=O)N[C@H](C(=O)N[C@@H](CCCN=C(N)N)C(=O)N[C@@H](CCCN=C(N)N)C(=O)N[C@H](C(=O)N[C@@H](C)C(=O)N[C@@H](CCCN=C(N)N)C(N)=O)C(C)C)C(C)C)C(C)C [RLARRVVRRVAR] | 
 |  |  |  |  |  |  |  |  | 8 µM (≈ 12 µg/mL) |  | C[C@H](NC(=O)[C@H](C)NC(=O)[C@H](CCCCN)NC(=O)[C@H](C)NC(=O)[C@H](C)NC(=O)[C@H](C)NC(=O)[C@H](CCCCN)NC(=O)[C@H](Cc1ccccc1)NC(=O)[C@@H](N)Cc1c[nH]c2ccccc12)C(=O)N[C@@H](C)C(=O)N[C@@H](CCCCN)C(=O)N[C@@H](Cc1ccccc1)C(=O)N[C@@H](Cc1c[nH]c2ccccc12)C(N)=O [WFKAAAKAAAKFW] | MIC [25]: 4 µM (≈ 5.98 µg/mL); MIC [26]: 8 µM (≈ 12 µg/mL); MIC [27]: 32 µM (≈ 47.8 µg/mL); MIC [21]: 16 µM (≈ 23.9 µg/mL); MIC [28]: 8 µM (≈ 12 µg/mL); MIC [29]: 32 µM (≈ 47.8 µg/mL); MIC [30]: 16 µM (≈ 23.9 µg/mL); MIC [24]: 4 µM (≈ 5.98 µg/mL)
